This is an account of results in US20240409585A1, “MACROCYCLIC IMMUNOMODULATORS” (priority 2021, published 2024).

Numbered stars: 1 amine (or outer) side, 2 acyl side, 3 side chain; on linkers, the order of the positions; unused ones are H or OH. Bridge positions count the residues as written; N and C are the ends. Square brackets hold non-standard residues; d marks the D form. Peptide text beside a SMILES is read from it. * marks the point of attachment. Bip(4'-COOH) = N[C@@H](Cc1ccc(-c2ccc(C(=O)O)cc2)cc1)C(=O)O; Bip(4'-NHAc) = CC(=O)Nc1ccc(-c2ccc(C[C@H](N)C(=O)O)cc2)cc1; X17 = Nc1ccc(-c2cccc(C[C@H](N[*:1])C(=O)[*:2])c2)cn1; X38 = O=C([C@H](CCCn1cc(-c2ccccc2)nn1)N[*:1])[*:2]; Phe(3-CF3) = N[C@@H](Cc1cccc(C(F)(F)F)c1)C(=O)O; Ala(morpholin-4-yl) = N[C@@H](CN1CCOCC1)C(=O)O; Phe(4-CONH2) = NC(=O)c1ccc(C[C@H](N)C(=O)O)cc1; Phe(4-COOH) = N[C@@H](Cc1ccc(C(=O)O)cc1)C(=O)O; X5 = CS(=O)(=O)NC(=O)C[C@H](N[*:1])C(=O)[*:2]; Bip = N[C@@H](Cc1ccc(-c2ccccc2)cc1)C(=O)O; Phe(3-Me) = Cc1cccc(C[C@H](N)C(=O)O)c1; Abu(3S-NH2) = C[C@H](N)[C@H](N)C(=O)O; Val(3-OH) = CC(C)(O)[C@H](N)C(=O)O; Nva(5-OH) = N[C@@H](CCCO)C(=O)O; Cha = N[C@@H](CC1CCCCC1)C(=O)O; Carboxymethyl = O=C(O)C*; NMeA = CN[C@@H](C)C(=O)O; Nle = CCCC[C@H](N)C(=O)O; Orn = NCCC[C@H](N)C(=O)O; Dab = NCC[C@H](N)C(=O)O

The target in one test is T1, Alexa fluor-647 labeled human PD-L1-Ig binding to Jurkat cell line over-expressing human PD-1 (Homo sapiens, UniProt Q15116).
T1 construct: expressed in transfected cells; host or cells: Jurkat
T1 sequence (Q15116 25-288): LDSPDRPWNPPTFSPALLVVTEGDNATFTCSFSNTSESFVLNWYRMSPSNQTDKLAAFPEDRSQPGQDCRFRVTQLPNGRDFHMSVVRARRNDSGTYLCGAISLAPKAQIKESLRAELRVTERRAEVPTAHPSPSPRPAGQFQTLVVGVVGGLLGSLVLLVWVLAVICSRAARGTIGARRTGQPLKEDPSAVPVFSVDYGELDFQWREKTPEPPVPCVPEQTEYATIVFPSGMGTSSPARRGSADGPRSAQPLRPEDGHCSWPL
The test is described as follows: Jurkat-PD-1 Cell Binding High-Content Screening Assay (CBA): Method 3 (Alexa fluor-647 labeled PD-L1-Ig). The note with it: Jurkat-PD-1 cells, Alexa fluor-647 labeled PD-L1-Ig 177 nM; head μM; read-out: CBA Method 3 μM. An outline of the steps:
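Jurkat cells over-expressing human PD-1 in RPMI/10% FCS were preincubated 2 h at 37 °C with compound, then exposed 1 h to Alexa fluor-647 labeled human PD-L1-Ig (177 nM final). Cells fixed in 4% paraformaldehyde with Hoechst 33342 and binding quantified by high-content imaging.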
Consider `Cc1cccc(C[C@@H]2NC(=O)[C@H](CC(=O)O)NC(=O)[C@H](Cc3ccc(-c4ccc(C(=O)O)cc4)cc3)NC(=O)[C@H](CN3CCOCC3)NC(=O)CSC[C@@H](C(=O)N[C@@H](CCN)C(N)=O)NC(=O)[C@H](CO)NC(=O)[C@H](C(C)(C)O)NC(=O)[C@H](CC3CCCCC3)NC(=O)[C@H](CC(N)=O)NC(=O)[C@@H](CC(C)C)NC(=O)[C@H](C)N(C)C(=O)[C@H](Cc3ccc(OCC(=O)O)cc3)NC(=O)[C@H](Cc3ccc(-c4ccccc4)cc3)NC(=O)[C@H](Cc3ccc(-c4ccc(C(=O)O)cc4)cc3)NC2=O)c1` [Example 5130] ({CH2CO}-[Ala(morpholin-4-yl)][Bip(4'-COOH)]D[Phe(3-Me)][Bip(4'-COOH)][Bip]Y(Carboxymethyl)[NMeA][dL]N[Cha][Val(3-OH)]SC[Dab]-NH2; thioether N-14), for which the IC50 was found to be 0.06 µM.
On the same count and under the same terms, then `Cc1cccc(C[C@@H]2NC(=O)[C@H](CC(=O)O)NC(=O)[C@H](Cc3ccc(C(=O)O)cc3)NC(=O)[C@H]([C@H](C)N)NC(=O)CSC[C@@H](C(=O)N[C@@H](CCN)C(N)=O)NC(=O)[C@H](CCC(N)=O)NC(=O)[C@H](C(C)C)NC(=O)[C@H](CC3CCCCC3)NC(=O)[C@H](CCN)NC(=O)[C@@H](CC(C)C)NC(=O)[C@H](C)N(C)C(=O)[C@H](Cc3ccc(C(N)=O)cc3)NC(=O)[C@H](Cc3ccc(-c4ccccc4)cc3)NC(=O)[C@H](Cc3ccc(OCC(=O)O)cc3)NC2=O)c1` [Example 5119] ({CH2CO}-[Abu(3S-NH2)][Phe(4-COOH)]D[Phe(3-Me)]Y(Carboxymethyl)[Bip][Phe(4-CONH2)][NMeA][dL][Dab][Cha]VQC[Dab]-NH2; thioether N-14), with 0.02 µM.
Same read-out and setting: in the case of `CC(=O)Nc1ccc(-c2ccc(C[C@@H]3NC(=O)[C@H](Cc4cccc(C(F)(F)F)c4)NC(=O)[C@H](CC(=O)O)NC(=O)[C@H](Cc4ccc(C(=O)O)cc4)NC(=O)[C@H](CCN)NC(=O)CSC[C@@H](C(=O)N[C@@H](CCN)C(N)=O)NC(=O)[C@H](CCC(N)=O)NC(=O)[C@H](C(C)C)NC(=O)[C@H](CC4CCCCC4)NC(=O)[C@H](CCN)NC(=O)[C@@H](CC(C)C)NC(=O)[C@H](C)N(C)C(=O)[C@H](Cc4ccc(C(N)=O)cc4)NC(=O)[C@H](Cc4ccc(-c5ccccc5)cc4)NC3=O)cc2)cc1` [Example 5097] ({CH2CO}-[Dab][Phe(4-COOH)]D[Phe(3-CF3)][Bip(4'-NHAc)][Bip][Phe(4-CONH2)][NMeA][dL][Dab][Cha]VQC[Dab]-NH2; thioether N-14) it was 0.02 µM; in that of `Cc1cccc(C[C@@H]2NC(=O)[C@H](CC(=O)O)NC(=O)[C@H](Cc3ccc(OCC(=O)O)cc3)NC(=O)[C@H](CN3CCOCC3)NC(=O)CSC[C@@H](C(=O)N[C@@H](CCN)C(N)=O)NC(=O)[C@H](CCCO)NC(=O)[C@H](C(C)C)NC(=O)[C@H](CC3CCCCC3)NC(=O)[C@H](CCN)NC(=O)[C@@H](CC(C)C)NC(=O)[C@H](C)N(C)C(=O)[C@H](CCC(N)=O)NC(=O)[C@H](Cc3ccc(-c4ccccc4)cc3)NC(=O)[C@H](Cc3cccc(-c4ccc(N)nc4)c3)NC2=O)c1` [Example 5100] ({CH2CO}-[Ala(morpholin-4-yl)]Y(Carboxymethyl)D[Phe(3-Me)][X17][Bip]Q[NMeA][dL][Dab][Cha]V[Nva(5-OH)]C[Dab]-NH2; thioether N-14), 0.27 µM.
Consider `CC(=O)Nc1ccc(-c2ccc(C[C@@H]3NC(=O)[C@H](Cc4cccc(C(F)(F)F)c4)NC(=O)[C@H](CC(=O)NS(C)(=O)=O)NC(=O)[C@H](Cc4ccc(C(N)=O)cc4)NC(=O)[C@H](CC(C)C)NC(=O)CSC[C@@H](C(=O)N[C@@H](CCN)C(N)=O)NC(=O)[C@H](CC(N)=O)NC(=O)[C@H](C(C)C)NC(=O)[C@H](CC4CCCCC4)NC(=O)[C@H](CCN)NC(=O)[C@@H](CC(C)C)NC(=O)[C@H](C)N(C)C(=O)[C@H](Cc4ccc(C(N)=O)cc4)NC(=O)[C@H](Cc4ccc(-c5ccccc5)cc4)NC3=O)cc2)cc1` [Example 5114] ({CH2CO}-L[Phe(4-CONH2)][X5][Phe(3-CF3)][Bip(4'-NHAc)][Bip][Phe(4-CONH2)][NMeA][dL][Dab][Cha]VNC[Dab]-NH2; thioether N-14), for which the IC50 came out at 0.11 µM.
On to `CC(=O)Nc1ccc(-c2ccc(C[C@@H]3NC(=O)[C@H](Cc4cccc(C(F)(F)F)c4)NC(=O)[C@H](CC(=O)O)NC(=O)[C@H](Cc4ccc(C(=O)O)cc4)NC(=O)[C@H](CC(C)C)NC(=O)CSC[C@@H](C(=O)N[C@@H](CCN)C(N)=O)NC(=O)[C@H](CCCN)NC(=O)[C@H](C(C)C)NC(=O)[C@H](CC4CCCCC4)NC(=O)[C@H](CCN)NC(=O)[C@@H](CC(C)C)NC(=O)[C@H](C)N(C)C(=O)[C@H](CCCN)NC(=O)[C@H](Cc4ccc(-c5ccccc5)cc4)NC3=O)cc2)cc1` [Example 5096] ({CH2CO}-L[Phe(4-COOH)]D[Phe(3-CF3)][Bip(4'-NHAc)][Bip][Orn][NMeA][dL][Dab][Cha]V[Orn]C[Dab]-NH2; thioether N-14), for which the IC50 stood at 0.04 µM.

Still in this test, the particulars now being: Jurkat-PD-1 cells, Alexa fluor-647 labeled PD-L1-Ig 177 nM; nM; read-out: CBA Method 3.
Regarding `CC(=O)Nc1ccc(-c2ccc(C[C@@H]3NC(=O)[C@H](Cc4cccc(C)c4)NC(=O)[C@H](CC(=O)O)NC(=O)[C@H](CCCn4cc(-c5ccccc5)nn4)NC(=O)[C@H](CN4CCOCC4)NC(=O)CSC[C@@H](C(=O)N[C@@H](CCN)C(N)=O)NC(=O)[C@H](CCC(N)=O)NC(=O)[C@H](C(C)C)NC(=O)[C@H](CC4CCCCC4)NC(=O)[C@H](CCN)NC(=O)[C@@H](CC(C)C)NC(=O)[C@H](C)N(C)C(=O)[C@H](Cc4ccc(C(=O)O)cc4)NC(=O)[C@H](Cc4ccc(-c5ccccc5)cc4)NC3=O)cc2)cc1` [Example 5295] ({CH2CO}-[Ala(morpholin-4-yl)][X38]D[Phe(3-Me)][Bip(4'-NHAc)][Bip][Phe(4-COOH)][NMeA][dL][Dab][Cha]VQC[Dab]-NH2; thioether N-14), the IC50 came out at 0.0016 µM.
As to `Cc1cccc(C[C@@H]2NC(=O)[C@H](CC(=O)O)NC(=O)[C@H](Cc3ccc(OCC(=O)O)cc3)NC(=O)[C@H](CCCCN)NC(=O)CSC[C@@H](C(=O)N[C@@H](CCN)C(N)=O)NC(=O)[C@H](CCCN)NC(=O)[C@H](C(C)C)NC(=O)[C@H](CC3CCCCC3)NC(=O)[C@H](CCN)NC(=O)[C@@H](CC(C)C)NC(=O)[C@H](C)N(C)C(=O)[C@H](CCC(N)=O)NC(=O)[C@H](Cc3ccc(-c4ccccc4)cc3)NC(=O)[C@H](Cc3ccc(C(=O)O)cc3)NC2=O)c1` [Example 5181] ({CH2CO}-KY(Carboxymethyl)D[Phe(3-Me)][Phe(4-COOH)][Bip]Q[NMeA][dL][Dab][Cha]V[Orn]C[Dab]-NH2; thioether N-14), the IC50 worked out at 0.0038 µM.
On to `Cc1cccc(C[C@@H]2NC(=O)[C@H](CC(=O)O)NC(=O)[C@H](Cc3ccc(OCC(=O)O)cc3)NC(=O)[C@H](Cc3ccc(O)cc3)NC(=O)CSC[C@@H](C(=O)N[C@@H](CCN)C(N)=O)NC(=O)[C@H](CCCN)NC(=O)[C@H](C(C)C)NC(=O)[C@H](CC3CCCCC3)NC(=O)[C@H](CCN)NC(=O)[C@@H](CC(C)C)NC(=O)[C@H](C)N(C)C(=O)[C@H](CCC(N)=O)NC(=O)[C@H](Cc3ccc(-c4ccccc4)cc3)NC(=O)[C@H](Cc3ccc(C(=O)O)cc3)NC2=O)c1` [Example 5271] ({CH2CO}-YY(Carboxymethyl)D[Phe(3-Me)][Phe(4-COOH)][Bip]Q[NMeA][dL][Dab][Cha]V[Orn]C[Dab]-NH2; thioether N-14), for which the IC50 was 0.001 µM.
Take `Cc1cccc(C[C@@H]2NC(=O)[C@H](CC(=O)O)NC(=O)[C@H](Cc3ccc(-c4ccc(C(=O)O)cc4)cc3)NC(=O)[C@H](CN3CCOCC3)NC(=O)CSC[C@@H](C(=O)N[C@@H](CCN)C(N)=O)NC(=O)[C@H](CCC(=O)O)NC(=O)[C@H](C(C)C)NC(=O)[C@H](CC(C)C)NC(=O)[C@H](CC(N)=O)NC(=O)[C@@H](CC(C)C)NC(=O)[C@H](C)N(C)C(=O)[C@H](C(C)C)NC(=O)[C@H](Cc3ccc(-c4ccccc4)cc3)NC(=O)[C@H](CC(C)C)NC2=O)c1` [Example 5125] ({CH2CO}-[Ala(morpholin-4-yl)][Bip(4'-COOH)]D[Phe(3-Me)]L[Bip]V[NMeA][dL]NLVEC[Dab]-NH2; thioether N-14): the IC50 stood at 0.0094 µM.
On the same count and under the same terms, in the case of `Cc1cccc(C[C@@H]2NC(=O)[C@H](CC(=O)O)NC(=O)[C@H](Cc3ccc(C(=O)O)cc3)NC(=O)[C@H](C)NC(=O)CSC[C@@H](C(=O)N[C@@H](CCN)C(N)=O)NC(=O)[C@H](CC(=O)O)NC(=O)[C@H](C(C)C)NC(=O)[C@H](CC3CCCCC3)NC(=O)[C@H](CCN)NC(=O)[C@@H](CC(C)C)NC(=O)[C@H](C)N(C)C(=O)[C@H](Cc3ccc(C(=O)O)cc3)NC(=O)[C@H](Cc3ccc(-c4ccccc4)cc3)NC(=O)[C@H](Cc3ccc(C(=O)O)cc3)NC2=O)c1` [Example 5135] ({CH2CO}-A[Phe(4-COOH)]D[Phe(3-Me)][Phe(4-COOH)][Bip][Phe(4-COOH)][NMeA][dL][Dab][Cha]VDC[Dab]-NH2; thioether N-14) it was 0.0068 µM.
On the same count and under the same terms, then `CCCC[C@@H]1NC(=O)CSC[C@@H](C(=O)N[C@@H](CCN)C(N)=O)NC(=O)[C@H](CCCN)NC(=O)[C@H](C(C)C)NC(=O)[C@H](CC2CCCCC2)NC(=O)[C@H](CCN)NC(=O)[C@@H](CC(C)C)NC(=O)[C@H](C)N(C)C(=O)[C@H](CCC(N)=O)NC(=O)[C@H](Cc2ccc(-c3ccccc3)cc2)NC(=O)[C@H](Cc2ccc(-c3ccc(C(=O)O)cc3)cc2)NC(=O)[C@H](Cc2cccc(C(F)(F)F)c2)NC(=O)[C@H](CC(=O)O)NC(=O)[C@H](Cc2ccc(C(=O)O)cc2)NC1=O` [Example 5166] ({CH2CO}-[Nle][Phe(4-COOH)]D[Phe(3-CF3)][Bip(4'-COOH)][Bip]Q[NMeA][dL][Dab][Cha]V[Orn]C[Dab]-NH2; thioether N-14), with 0.001 µM.
